Test results as given in patent US4564613A, “Pyridoindole derivatives, compositions and use” (Troponwerke GmbH & Co., priority 1983, dated 1986).

Key:
[1] = tested on: ptosis in mice induced by tetrabenazine; assay: Tetrabenazine antagonism (ptosis in mice induced by tetrabenazine); type: in vivo; conditions: Mus musculus, ip, compound intraperitoneally, 20 mg/kg of tetrabenazine intraperitoneally, read-out: ED50 (dose at which the ptosis induced by tetrabenazine is reduced to 50%)
Protocol: (§1) Some test results for the new compounds of the general formula I which were tested for anxiolytic, nootropic and antidepressive properties are given below. The pilot tests used were inhibition of footshock induced aggression (Tedeschi et al., J. Pharmacol. Exp. Ther. 129, p. 28-34, 1954), for the anxiolytic action and the antitetrabenazine test (J. L. Howard et al., in: Antidepressants: Neurochemical, Behavioral and Clinical Perspectives, edited by S. J. Enna et al., Raven Press N.Y., pages 107-120, 1981) and amphetamine potentiation test (J. L. Howard et al., in: Antidepressants: Neurochemical, Behavioral and Clinical Perspectives, edited by S. J. Enna et al., Raven Press N.Y., pages 107-120, 1981) for the antidepressive action.
Substances having an antidepressive action antagonize the ptosis in mice induced by tetrabenazine. The ED50 value indicates the dose at which the ptosis induced by 20 mg/kg of tetrabenazine intraperitoneally is reduced to 50%.

[2] = tested on: amphetamine-induced stereotype behavior in rats; assay: Amphetamine potentiation (amphetamine-induced stereotype behavior in rats); type: in vivo; conditions: Rattus norvegicus, ip, compound intraperitoneally, 2 mg/kg of DL-amphetamine sulphate intravenous, read-out: ED50 (dose at which the amphetamine-induced behavior is intensified by 50%)
Protocol: as §1
Substances having an antidepressive action potentiate the amphetamine-induced stereotype behavior in rats.
The ED50 value given is the dose at which the amphetamine-induced behavior is intensified by 50% following intravenous administration of 2 mg/kg of DL-amphetamine sulphate.

| Compound | ED50 [1] [mg/kg] | ED50 [2] [mg/kg] |
| --- | --- | --- |
| CN1Cc2c(ccc3c2NC(=O)C3=O)C(c2ccc(F)cc2)C1 (centres unmarked) [1 a] | 1 | – |
| CN1Cc2c(ccc3c2NC(=O)C3=O)C(c2ccccc2)C1 (centres unmarked) [1 b] | 2 | – |
| CN1Cc2c(ccc3cc[nH]c23)C(c2ccccc2)C1 (centres unmarked) [2 a] | 0.3 | 2.4 |
| CN1Cc2c(ccc3cc[nH]c23)C(c2ccc(F)cc2)C1 (centres unmarked) [2 b] | 0.2 | 3.9 |
| CN1Cc2c(ccc3c2NCC3)C(c2ccccc2)C1 (centres unmarked) [3 a] | 0.1 | 1.2 |
| CN1Cc2c(ccc3c2NCC3)C(c2ccc(F)cc2)C1 (centres unmarked) [3 b] | 0.01 | 2.2 |
| CN1Cc2c(ccc3c2N(C)CC3)C(c2ccc(F)cc2)C1 (centres unmarked) [Compound 4, 1,8-Dimethyl-6-(fluorophenyl)-2,3,6,7,8,9-hexahydro-1H-pyrido[4,3-g]indole] | 0.01 | – |
